# Assay results taken from patent publication US20260218197A1, “EXTRACELLULAR VESICLE SECRETION REDUCING AGENT FOR REDUCING EXTRACELLULAR VESICLE SECRETION, AND USE OF THE SAME” (THEORIA SCIENCE INC., priority 2020, published 2026).
# Columns and labels:
# lung cancer cells A549 = assay: CD63 immunofluorescence / coimmunostaining (intracellular EV accumulation); type: cell-based, human; details: A549, 2.5 μmol/L, 48 hours, serine-deficient medium, compared with NC (DMSO)
# Protocol: (§1) Colorectal cancer cells HCT116 and lung cancer cells A549 were transfected with siRNA (siPSAT1) in the same manner as in the item (2) in Example A1, and EV biogenesis after PSAT1 silencing was examined. For the respective silenced transformants, CD63 and PSAT1 were examined by immunofluorescence.
# (§2) Further, coimmunostaining of the EV marker CD63 and also an early endosome marker EEA1 or a late endosome marker Rab7 was conducted for the PSAT1-silenced transformants. As a result, no overlap was observed between EEA1 and CD63 in either the PSAT1-silenced transformants or the negative control transformants. […] On this account, the CD63 single-positive area was measured based on the intensity. […] This confirmed that EVs had accumulated in the cells.
# (§3) Specifically, the test was performed in the following manner. Colorectal cancer cells HCT116 and lung cancer cells A549 were each seeded in a 6-well plate at 1.5×10^5 cells/well (Day 0), and incubated for 24 hours in a medium (DMEM with 10% FBS, 1×anti-anti medium). After the incubation (Day 1), the above-described medium was removed, and thereafter, a serine-deficient medium and an inhibitor solution were added to the wells. The inhibitor solution was prepared by dissolving NCT-503 in DMSO, and the concentration of the inhibitor per well was set to 2.5 μmol/L. Then, after another 48 hours of incubation (Day 3), the medium in the wells was collected and the cells in the wells were counted. As negative controls (NC), the test was performed in the same manner, except that DMSO was added instead of the inhibitor solution.
# (§4) EVs accumulated in the cells were analyzed in the following manner. Specifically, the collected cells were immunostained, the CD63 single-positive area was measured based on the fluorescence intensity, and the fluorescence intensity measured in the area was divided by the number of nuclei to determine the amount of EVs accumulated in each cell. On the other hand, secreted EVs were collected from the collected medium and then subjected to the NTA. In the NTA, the amount of secreted EVs was determined as a relative value calculated assuming that the amount of the secreted EVs in the negative control was 1.
# [1] = system: colorectal cancer cells HCT116; assay: as above; type: cell-based, human; details: HCT116, 2.5 μmol/L, 48 hours, serine-deficient medium, compared with NC (DMSO)
# Protocol: as §1, §2, §3, §4
# [2] = system: normal epithelial cells in the large intestine (HCoEpiC); assay: Amount of secreted EVs per cell by ExoScreen in normal cells; type: cell-based
# Protocol: (§5) EV detection was performed using an AlphaLISA reagent (Perkin Elmer) composed of AlphaScreen streptavidin-coated donor beads (6760002), AlphaLISA unconjugated acceptor beads (6062011), and an AlphaLISA universal buffer (AL001F), a 96-well half-area white plate (6005560, Perkin Elmer), and a detection device EnSpire Alpha 2300 Mutilabel plate reader (Perkin Elmer). Specifically, the EV detection was performed as follows. Each well of the plate was filled with 5 μL of EVs or 10 μL of CM (cell culture supernatant), 10 μL of a 5 nmol/L biotinylated antibody solution prepared using the above-described buffer, and 10 μL of 50 µg/mL AlphaLISA acceptor bead-conjugated antibody. For detection of CD9/CD9 double-positive EVs, a biotinylated anti-human CD9 antibody and an anti-human CD9 antibody conjugated with AlphaLISA acceptor beads were used. For detection of CD9/CD63 double-positive EVs, a biotinylated anti-human CD9 antibody and an anti-human CD63 antibody conjugated with AlphaLISA acceptor beads were used. For detection of CD63/CD63 double-positive EVs, a biotinylated anti-human CD63 antibody and an anti-human CD63 antibody conjugated with AlphaLISA acceptor beads were used. The plate was incubated at 37° C. for 1 hour, and then, 25 μL of 80 μg/mL AlphaScreen streptavidin-coated donor beads were added thereto. The plate was incubated at 37° C. for another 30 minutes in the dark. Next, luminescence in the wells of the plate was measured using the detection device with the excitation wavelength set to 680 nm and the emission detection wavelength set to 615 nm. The antibodies used were both commercially available products, namely, a mouse monoclonal anti-human CD9 (Clone 12A12) and a CD63 antibody (Clone 8A12) (both available from Cosmo Bio).
# (§6) The present example examined the effect of NCT-503 on normal cells to provide indirect data showing that NCT-503 reduced EV secretion specific to cancer cells. […] Thereafter, the cell viability was determined and also the amount of secreted EVs was measured by the ExoScreen method.
# (§7) Specifically, the test was performed in the following manner. […] Then, the medium in the wells was collected and the cells in the wells were counted. As a control, the same procedures as described above were performed except that DMSO was added instead of the inhibitor solution, and the cells in the wells were counted. Then, the cell viability was calculated assuming that the number of cells in the NCT-free (0 M) medium (i.e., DMSO-containing medium) of the control was a relative value of 1. Also, the amount of secreted EVs was measured by ExoScreen.
# [3] = system: normal epithelial cells in the lung (HBEC); assay: as above; type: cell-based
# Protocol: as §5, §6, §7
smiles,measurement,setting,value
Cc1cc(C)nc(NC(=S)N2CCN(Cc3ccc(C(F)(F)F)cc3)CC2)c1 [NCT-503],amount of EVs accumulated in each cell (CD63 single-positive fluorescence intensity / number of nuclei),lung cancer cells A549,larger
same,amount of EVs accumulated in each cell (CD63 single-positive fluorescence intensity / number of nuclei),[1],larger
same,"difference in amount of secreted EVs, NCT-503-containing medium vs DMSO-containing medium without NCT","[2]; normal epithelial cells in the large intestine, 0.15625 to 2.5 μmol/L",almost no difference
same,relative value of the amount of secreted EVs with respect to DMSO-containing medium without NCT (0 µM),"[2]; normal epithelium cells in the large intestine, NCT-503 2.5 mol/L (so in the source), 48 hours, ExoScreen",0.98
same,"difference in amount of secreted EVs, NCT-503-containing medium vs DMSO-containing medium without NCT","[3]; normal epithelial cells in the lung, 0.15625 to 2.5 μmol/L",almost no difference
same,relative value of the amount of secreted EVs with respect to DMSO-containing medium without NCT (0 µM),"[3]; normal epithelium cells in the lung, NCT-503 2.5 mol/L (so in the source), 48 hours, ExoScreen",1.17
